Measured values published in PubChem BioAssay (NCI).
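Growth conditions: 96-well plates. Treatment: test compound, 48 hours, 5 concentrations. Analysis: linear interpolation between bracketing concentrations; unreached endpoints set to highest concentration. At the TGI there is no net growth.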

Columns and labels:
Experiment in all cases: NCI-60 cell line screen, 48 h
IGROV1 ovarian = system: IGROV1 ovarian
SK-MEL-5 melanoma = system: SK-MEL-5 melanoma
A498 renal = system: A498 renal
MALME-3M melanoma = system: MALME-3M melanoma
SK-MEL-28 melanoma = system: SK-MEL-28 melanoma
K-562 leukemia = system: K-562 leukemia
UACC-257 melanoma = system: UACC-257 melanoma
OVCAR-3 ovarian = system: OVCAR-3 ovarian
DU-145 prostate = system: DU-145 prostate
MDA-MB-231 breast = system: MDA-MB-231 breast
HCT-15 colon = system: HCT-15 colon
SNB-19 CNS = system: SNB-19 CNS
NCI-H522 lung = system: NCI-H522 lung
MCF7 breast = system: MCF7 breast
HCT-116 colon = system: HCT-116 colon
SF-268 CNS = system: SF-268 CNS
UACC-62 melanoma = system: UACC-62 melanoma
HCC-2998 colon = system: HCC-2998 colon
KM12 colon = system: KM12 colon
SR leukemia = system: SR leukemia
U251 CNS = system: U251 CNS
RPMI-8226 leukemia = system: RPMI-8226 leukemia
EKVX NSCLC = system: EKVX NSCLC
SN12C renal = system: SN12C renal
SNB-75 CNS = system: SNB-75 CNS
SK-MEL-2 melanoma = system: SK-MEL-2 melanoma
SF-539 CNS = system: SF-539 CNS
HOP-92 NSCLC = system: HOP-92 NSCLC
SF-295 CNS = system: SF-295 CNS
CCRF-CEM leukemia = system: CCRF-CEM leukemia
UO-31 renal = system: UO-31 renal
SK-OV-3 ovarian = system: SK-OV-3 ovarian
LOX IMVI melanoma = system: LOX IMVI melanoma
NCI/ADR-RES ovarian = system: NCI/ADR-RES ovarian
MDA-N = system: MDA-N
NCI-H226 lung = system: NCI-H226 lung
MDA-MB-435 = system: MDA-MB-435
TK-10 renal = system: TK-10 renal
OVCAR-4 ovarian = system: OVCAR-4 ovarian
HOP-62 NSCLC = system: HOP-62 NSCLC
786-0 renal = system: 786-0 renal
M14 melanoma = system: M14 melanoma
ACHN renal = system: ACHN renal
SW-620 colon = system: SW-620 colon
OVCAR-8 ovarian = system: OVCAR-8 ovarian
MOLT-4 leukemia = system: MOLT-4 leukemia
COLO 205 colon = system: COLO 205 colon
OVCAR-5 ovarian = system: OVCAR-5 ovarian
NCI-H23 lung = system: NCI-H23 lung
CAKI-1 renal = system: CAKI-1 renal
PC-3 prostate = system: PC-3 prostate
HT29 colon = system: HT29 colon
HS 578T breast = system: HS 578T breast
NCI-H460 lung = system: NCI-H460 lung
RXF 393 renal = system: RXF 393 renal
A549 NSCLC = system: A549 NSCLC
BT-549 breast = system: BT-549 breast
T-47D breast = system: T-47D breast
HL-60(TB) leukemia = system: HL-60(TB) leukemia

In the case of `CCCN1C(=O)CCC2=C1CCc1c2ccc(Cl)c1Cl`, the TGI (IGROV1 ovarian) is reported as > 100 µM, the TGI (SK-MEL-5 melanoma) is reported as 60.4 µM and the TGI (A498 renal) is reported as 33.2 µM. The TGI (MALME-3M melanoma) was > 100 µM, the TGI (SK-MEL-28 melanoma) was > 100 µM and the TGI (K-562 leukemia) was > 100 µM. The TGI (UACC-257 melanoma) was > 100 µM, the TGI (OVCAR-3 ovarian) was 86.7 µM and the TGI (DU-145 prostate) was > 100 µM. For the same molecule, the TGI (MDA-MB-231 breast) was 48.7 µM, the TGI (HCT-15 colon) was > 100 µM and the TGI (SNB-19 CNS) was > 100 µM. For the same molecule, the TGI (NCI-H522 lung) was 91.4 µM, the TGI (MCF7 breast) was > 100 µM and the TGI (HCT-116 colon) was > 100 µM. For the same molecule, the TGI (SF-268 CNS) was > 100 µM, the TGI (UACC-62 melanoma) was 5.44 µM and the TGI (HCC-2998 colon) was 49.8 µM. The TGI (KM12 colon) was > 100 µM, the TGI (SR leukemia) was > 100 µM and the TGI (U251 CNS) was > 100 µM. For the same molecule, the TGI (RPMI-8226 leukemia) was > 100 µM, the TGI (EKVX NSCLC) was > 100 µM and the TGI (SN12C renal) was > 100 µM. The TGI (SNB-75 CNS) was 33.9 µM, the TGI (SK-MEL-2 melanoma) was 41.6 µM and the TGI (SF-539 CNS) was 95.4 µM. The TGI (HOP-92 NSCLC) was 56.6 µM, the TGI (SF-295 CNS) was > 100 µM and the TGI (CCRF-CEM leukemia) was > 100 µM. The TGI (UO-31 renal) was > 100 µM, the TGI (SK-OV-3 ovarian) was 69.1 µM and the TGI (LOX IMVI melanoma) was > 100 µM. For the same molecule, the TGI (NCI/ADR-RES ovarian) was > 100 µM, the TGI (MDA-N) was > 100 µM and the TGI (NCI-H226 lung) was > 100 µM. The TGI (MDA-MB-435) was > 100 µM, the TGI (TK-10 renal) was 49.5 µM and the TGI (OVCAR-4 ovarian) was > 100 µM. The TGI (HOP-62 NSCLC) was > 100 µM, the TGI (786-0 renal) was > 100 µM and the TGI (M14 melanoma) was > 100 µM. The TGI (ACHN renal) was > 100 µM, the TGI (SW-620 colon) was > 100 µM and the TGI (OVCAR-8 ovarian) was > 100 µM. For the same molecule, the TGI (MOLT-4 leukemia) was > 100 µM, the TGI (COLO 205 colon) was > 100 µM and the TGI (OVCAR-5 ovarian) was 82 µM. For the same molecule, the TGI (NCI-H23 lung) was > 100 µM, the TGI (CAKI-1 renal) was > 100 µM and the TGI (PC-3 prostate) was > 100 µM. The TGI (HT29 colon) was > 100 µM, the TGI (HS 578T breast) was 22 µM and the TGI (NCI-H460 lung) was > 100 µM. The TGI (RXF 393 renal) was 50.5 µM, the TGI (A549 NSCLC) was > 100 µM and the TGI (BT-549 breast) was > 100 µM. The TGI (T-47D breast) was > 100 µM and the TGI (HL-60(TB) leukemia) was 86.2 µM.
Work on `CC(C)CCC1(O)O[C@H]2C[C@H]3[C@@H]4CCC5CC(=O)C=C[C@]5(C)[C@H]4CC[C@]3(C)[C@H]2[C@@H]1C` (stereo partly drawn) yielded a TGI (IGROV1 ovarian) of 30.3 µM, a TGI (SK-MEL-5 melanoma) of 26.7 µM and a TGI (A498 renal) of 28.5 µM. It also gave a TGI (MALME-3M melanoma) of 29.5 µM, a TGI (SK-MEL-28 melanoma) of 25 µM and a TGI (K-562 leukemia) of 19.3 µM. It also gave a TGI (UACC-257 melanoma) of 28.3 µM, a TGI (OVCAR-3 ovarian) of 22.9 µM and a TGI (DU-145 prostate) of 28.2 µM. The TGI (MDA-MB-231 breast) was 28.2 µM, the TGI (HCT-15 colon) was 23.4 µM and the TGI (SNB-19 CNS) was 31.3 µM. For the same molecule, the TGI (NCI-H522 lung) was 3.8 µM, the TGI (MCF7 breast) was 20.3 µM and the TGI (HCT-116 colon) was 19.3 µM. It also gave a TGI (SF-268 CNS) of 28.2 µM, a TGI (UACC-62 melanoma) of 28 µM and a TGI (HCC-2998 colon) of 5.86 µM. The TGI (KM12 colon) was 26.5 µM, the TGI (SR leukemia) was 22.6 µM and the TGI (U251 CNS) was 23.7 µM. The TGI (RPMI-8226 leukemia) was 21.4 µM, the TGI (EKVX NSCLC) was 34.7 µM and the TGI (SN12C renal) was 28 µM. It also gave a TGI (SNB-75 CNS) of 28 µM, a TGI (SK-MEL-2 melanoma) of 29.6 µM and a TGI (SF-539 CNS) of 31.7 µM. For the same molecule, the TGI (HOP-92 NSCLC) was 16 µM, the TGI (SF-295 CNS) was 24 µM and the TGI (CCRF-CEM leukemia) was 10.3 µM. For the same molecule, the TGI (UO-31 renal) was 30.3 µM, the TGI (SK-OV-3 ovarian) was 32.9 µM and the TGI (LOX IMVI melanoma) was 26.3 µM. The TGI (NCI/ADR-RES ovarian) was 33.1 µM, the TGI (MDA-N) was 27 µM and the TGI (NCI-H226 lung) was 14.8 µM. For the same molecule, the TGI (MDA-MB-435) was 24.5 µM, the TGI (TK-10 renal) was 24.2 µM and the TGI (OVCAR-4 ovarian) was 24.3 µM. For the same molecule, the TGI (HOP-62 NSCLC) was 28.4 µM, the TGI (786-0 renal) was 25.4 µM and the TGI (M14 melanoma) was 29.8 µM. The TGI (ACHN renal) was 26.6 µM, the TGI (SW-620 colon) was 26.4 µM and the TGI (OVCAR-8 ovarian) was 30.5 µM. It also gave a TGI (MOLT-4 leukemia) of 7.15 µM, a TGI (COLO 205 colon) of 27.8 µM and a TGI (OVCAR-5 ovarian) of 26.2 µM. It also gave a TGI (NCI-H23 lung) of 14.8 µM, a TGI (CAKI-1 renal) of 28.1 µM and a TGI (PC-3 prostate) of 17.4 µM. It also gave a TGI (HT29 colon) of 26.9 µM, a TGI (HS 578T breast) of 7.31 µM and a TGI (NCI-H460 lung) of 22.2 µM. For the same molecule, the TGI (RXF 393 renal) was 24.2 µM, the TGI (A549 NSCLC) was 28.2 µM and the TGI (BT-549 breast) was 27.3 µM. For the same molecule, the TGI (T-47D breast) was 25.6 µM and the TGI (HL-60(TB) leukemia) was 17.7 µM.
